How the values were obtained:
HCT-116 = assay: Cytotoxicity against human HCT116 cells after 72 hrs by MTT assay; format: functional, cell-based; conditions: HCT-116, 72 h
Caco-2 = assay: Cytotoxicity against human Caco2 cells after 72 hrs by MTT assay; format: functional, cell-based; conditions: Caco-2, 72 h
NCI-H157 = assay: Cytotoxicity against human NCI-H157 cells after 72 hrs by MTT assay; format: functional, cell-based; conditions: NCI-H157, 72 h
A549 = assay: Cytotoxicity against human A549 cells after 72 hrs by MTT assay; format: functional, cell-based; conditions: A549, 72 h
Bcap37 = assay: Cytotoxicity against human Bcap37 cells after 72 hrs by MTT assay; format: functional, cell-based; conditions: Bcap37, 72 h
MKN-45 = assay: Cytotoxicity against human MKN45 cells after 72 hrs by MTT assay; format: functional, cell-based; conditions: MKN-45, 72 h
[1] = Cytotoxicity against human HL-7702 cells after 72 hrs by MTT assay; format: cell-based; conditions: L02, 72 h
SGC-7901 = assay: Cytotoxicity against human SGC7901 cells after 72 hrs by MTT assay; format: functional, cell-based; conditions: SGC-7901, 72 h
HepG2 = assay: Cytotoxicity against human HepG2 cells after 72 hrs by MTT assay; format: functional, cell-based; conditions: HepG2, 72 h
[2] = Cytotoxicity against human LTEP-A2 cells after 72 hrs by MTT assay; format: functional, cell-based; conditions: LTEP-A2, 72 h
MCF7 = assay: Cytotoxicity against human MCF7 cells after 72 hrs by MTT assay; format: functional, cell-based; conditions: MCF7, 72 h
NCI-H446 = assay: Cytotoxicity against human NCI-H446 cells after 72 hrs by MTT assay; format: functional, cell-based; conditions: NCI-H446, 72 h
NCI-H460 = assay: Cytotoxicity against human H460 cells after 72 hrs by MTT assay; format: functional, cell-based; conditions: NCI-H460, 72 h
DU-145 = assay: Cytotoxicity against human DU145 cells after 72 hrs by MTT assay; format: functional, cell-based; conditions: DU-145, 72 h
OVCAR-3 = assay: Cytotoxicity against human OVCAR3 cells after 72 hrs by MTT assay; format: functional, cell-based; conditions: OVCAR-3, 72 h
Bel-7402 = assay: Cytotoxicity against human Bel7402 cells after 72 hrs by MTT assay; format: functional, cell-based; conditions: Bel-7402, 72 h

Structure (SMILES) | IC50 [1] [µM] | IC50 (HepG2) [µM] | IC50 (Bel-7402) [µM] | further results
COc1cccc2c1C(=O)c1c(O)c3c(c(O)c1C2=O)C[C@@](O)(C(=O)CO)C[C@@H]3O[C@H]1C[C@H](N)[C@@H](O)[C@H](C)O1 [EPIRUBICIN] | 1.74 | 2.23 | 1.23 | IC50 (HCT-116): 570 nM; IC50 (Caco-2): 410 nM; IC50 (NCI-H157): 1720 nM; IC50 (A549): 880 nM; IC50 (Bcap37): 890 nM; IC50 (MKN-45): 660 nM; IC50 (SGC-7901): 510 nM; IC50 [2]: 3.41 µM; IC50 (MCF7): 1250 nM; IC50 (NCI-H446): 2350 nM; IC50 (NCI-H460): 6.74 µM; IC50 (DU-145): 4.01 µM; IC50 (OVCAR-3): 750 nM
C[C@@H]1O[C@@H](O[C@H]2[C@H](O[C@H]3CO[C@@H](O[C@H]4CC[C@]5(C)[C@H]6CC[C@]78OC[C@@]9(CCC(C)(C)C[C@H]97)[C@H](O)C[C@@]8(C)[C@]6(C)CC[C@H]5C4(C)C)[C@H](O)[C@H]3O)O[C@H](CO)[C@@H](O)[C@@H]2O)[C@H](O)[C@H](O)[C@H]1O [ARDISIANOSIDE C] | > 100 | 13.6 | 4.14 | –
CC1(C)CC[C@]23CO[C@@]4(CC[C@@H]5[C@@]6(C)CC[C@H](O[C@@H]7OC[C@H](O[C@@H]8O[C@H](CO)[C@@H](O)[C@H](O[C@@H]9O[C@H](CO)[C@@H](O[C@@H]%10O[C@H](CO)[C@@H](O)[C@H](O)[C@H]%10O)[C@H](O[C@@H]%10O[C@H](CO)[C@@H](O)[C@H](O)[C@H]%10O)[C@H]9O)[C@H]8O[C@@H]8OC[C@@H](O)[C@H](O)[C@H]8O)[C@H](O)[C@H]7O[C@@H]7O[C@H](CO)[C@@H](O)[C@H](O)[C@H]7O)C(C)(C)[C@@H]6CC[C@@]5(C)[C@]4(C)C[C@H]2O)[C@@H]3C1 [ARDISIANOSIDES A] | > 100 | 3.83 | 1.37 | –
C[C@@H]1O[C@@H](O[C@H]2[C@H](O[C@H]3CO[C@@H](O[C@H]4CC[C@]5(C)[C@H]6CC[C@]78OC(=O)[C@@]9(CC[C@](C)(CO)C[C@H]97)[C@H](O)C[C@@]8(C)[C@]6(C)CC[C@H]5C4(C)C)[C@H](O[C@@H]4O[C@H](CO)[C@@H](O)[C@H](O)[C@H]4O)[C@H]3O)O[C@H](CO)[C@@H](O)[C@@H]2O)[C@H](O)[C@H](O)[C@H]1O [ARDISIANOSIDE I] | > 100 | > 100 | > 100 | –
C[C@@H]1O[C@@H](O[C@H]2[C@H](O[C@H]3CO[C@@H](O[C@H]4CC[C@]5(C)[C@H]6CC[C@]78OC[C@@]9(CC[C@](C)(C=O)C[C@H]97)[C@H](O)C[C@@]8(C)[C@]6(C)CC[C@H]5C4(C)C)[C@H](O[C@@H]4O[C@H](CO)[C@@H](O)[C@H](O)[C@H]4O)[C@H]3O)O[C@H](CO)[C@@H](O)[C@@H]2O)[C@H](O)[C@H](O)[C@H]1O [ARDISIACRISPIN B] | > 100 | 21 | 4.46 | –
CC1(C)[C@@H](O[C@@H]2OC[C@H](O[C@@H]3O[C@H](CO)[C@@H](O)[C@H](O[C@@H]4O[C@H](CO)[C@@H](O)[C@H](O)[C@H]4O)[C@H]3O[C@@H]3OC[C@@H](O)[C@H](O)[C@H]3O)[C@H](O)[C@H]2O[C@@H]2O[C@H](CO)[C@@H](O)[C@H](O)[C@H]2O)CC[C@]2(C)[C@H]3CC[C@]45OC[C@@]6(CC[C@](C)(C=O)C[C@H]64)[C@H](O)C[C@@]5(C)[C@]3(C)CC[C@@H]12 [CYCLAMIN] | > 100 | 12.2 | 3.85 | –
C[C@@H]1O[C@@H](O[C@H]2[C@H](O[C@H]3CO[C@@H](O[C@H]4CC[C@]5(C)[C@H]6CC=C7[C@@H]8C[C@@](C)(CO)CC[C@]8(CO)[C@H](O)C[C@@]7(C)[C@]6(C)CC[C@H]5C4(C)C)[C@H](O[C@@H]4O[C@H](CO)[C@@H](O)[C@H](O)[C@H]4O)[C@H]3O)O[C@H](CO)[C@@H](O)[C@@H]2O)[C@H](O)[C@H](O)[C@H]1O [ARDISIAMAMILLOSEDE C] | > 100 | > 100 | > 100 | –
C[C@@H]1O[C@@H](O[C@H]2[C@H](O[C@H]3CO[C@@H](O[C@H]4CC[C@]5(C)[C@H]6CC=C7[C@@H]8C[C@@](C)(C(=O)O)CC[C@]8(CO)[C@H](O)C[C@@]7(C)[C@]6(C)CC[C@H]5C4(C)C)[C@H](O[C@@H]4O[C@H](CO)[C@@H](O)[C@H](O)[C@H]4O)[C@H]3O)O[C@H](CO)[C@@H](O)[C@@H]2O)[C@H](O)[C@H](O)[C@H]1O | > 100 | > 100 | > 100 | –
COC(OC)[C@@]1(C)CC[C@]23CO[C@@]4(CC[C@@H]5[C@@]6(C)CC[C@H](O[C@@H]7OC[C@H](O[C@@H]8O[C@H](CO)[C@@H](O)[C@H](O)[C@H]8O[C@@H]8O[C@@H](C)[C@H](O)[C@@H](O)[C@H]8O)[C@H](O)[C@H]7O)C(C)(C)[C@@H]6CC[C@@]5(C)[C@]4(C)C[C@H]2O)[C@@H]3C1 | > 100 | > 100 | > 100 | –
CC1(C)[C@@H](O[C@@H]2OC[C@H](O[C@@H]3O[C@H](CO)[C@@H](O)[C@H](O)[C@H]3O[C@@H]3OC[C@@H](O)[C@H](O)[C@H]3O)[C@H](O)[C@H]2O)CC[C@]2(C)[C@H]3CC[C@]45OC[C@@]6(CC[C@](C)(C=O)C[C@H]64)[C@H](O)C[C@@]5(C)[C@]3(C)CC[C@@H]12 [PRIMULANIN] | > 100 | > 100 | 4.05 | –
C[C@@H]1O[C@@H](O[C@H]2[C@H](O[C@H]3CO[C@@H](O[C@H]4CC[C@]5(C)[C@H]6CC[C@]78OC[C@@]9(CC[C@](C)(C(=O)O)C[C@H]97)C(=O)C[C@@]8(C)[C@]6(C)CC[C@H]5C4(C)C)[C@H](O[C@@H]4O[C@H](CO)[C@@H](O)[C@H](O)[C@H]4O)[C@H]3O)O[C@H](CO)[C@@H](O)[C@@H]2O)[C@H](O)[C@H](O)[C@H]1O | > 100 | > 100 | > 100 | –

— ChEMBL document CHEMBL2086259, “13,28-Epoxy triterpenoid saponins from Ardisia japonica selectively inhibit proliferation of liver cancer cells without affecting normal liver cells” (Bioorg Med Chem Lett, 2012)
